Reference: publication PMC9393165 (Scientific Reports, 2022)
Like-named read-outs stand apart in the source and are kept apart here. Marks after values point to notes of the source that are not given here.

How the values were obtained:
[1] = Tacrolimus whole blood concentration, trough and 12-h AUC after kidney transplantation (chemiluminescent microparticle immunoassay); type: in vivo, human; details: for C0 / AUC: human, whole blood, oral
Protocol: This prospective, randomized, double-blind, placebo-controlled study was carried out in four parallel groups of KTRs. […] The randomization schedule was concealed in sequentially numbered, sealed, opaque envelopes, and kept in a locked cabinet in the central pharmacy of Siriraj Hospital. Envelopes were opened sequentially only after enrollment of each participant. The diltiazem and placebo containers, which were issued with a medication number and assigned to consecutive patients in a sequential order, were tamper-proof, equal in weight, and similar in appearance. A pharmacist not involved in the care of the study patients did the randomization, distributed the study agents, and held the trial codes, which were disclosed after the study. Physicians, nurses, other care providers, and the study patients were unaware of the group allocations.
All participants received oral, immediate-release tacrolimus (Prograf®; Astellas, Kerry, Ireland). According to Siriraj Hospital protocol, the initial dose (0.05 mg/kg every 12 h) of tacrolimus was started 2 days before KT (day − 2) and subsequently adjusted after KT based on efficacy and toxicity and to maintain morning trough concentrations of 7 to 10 ng/mL in standard risk patients and 10 to 12 ng/mL in high-risk patients during the first week after transplantation. Participants also received either mycophenolate mofetil (Cellcept®; F Hoffmann-La Roche Ltd, Basel, Switzerland or Immucept®; Intas Pharmaceuticals Ltd., Gujarat, India) or mycophenolate sodium (Myfortic®; Novartis Pharma Stein, Switzerland for Novartis AG, Basel, Switzerland) at the dosage equivalent to 2 g/day of mycophenolate mofetil. A tapered corticosteroid regimen was administered consisting of an intravenous bolus of 500 mg of methylprednisolone (Solu-medrol®; Novartis Pharma Stein, Switzerland for Novartis AG, Basel, Switzerland) on day 0, 250 mg on day 1, 125 mg on day 2 followed by 40 mg/day of prednisolone on day 4 after KT. The subsequent prednisolone doses were gradually tapered thereafter. Induction therapy with basiliximab (Simulect®; Novartis Pharma AG, Basel, Switzerland) was allowed.
All patients received a fixed dose of omeprazole 40 mg/day.
[…] Samples were collected in EDTA tubes and stored at 4 degrees Celsius until analysis. Whole blood tacrolimus concentrations were determined within the same day of blood collection by using a chemiluminescent microparticle immunoassay method with […] system® i2000 (Abbott, Abbott Diagnostic, USA). The method was linear in the concentration range up to 30 ng/mL, the limits of quantification were 0.8 ng/mL, and the coefficient of variation of within run precision and between run precision were less than 10%. Mean recovery was 100 ± 10% according to the manufacturer’s information.
(§1) For calculation of AUC/D and C0/D, values of AUC and C0 were dose-adjusted by dividing the observed values by the dose recorded on the day of blood collection. Early-morning blood pressures were measured on the same day of blood collection for pharmacokinetic analysis by a ward nurse as part of a routine examination, during rest in a seated position with a calibrated and well-maintained automatic sphygmomanometer. Delayed graft function (DGF) was defined as failure of the kidney graft to function immediately, with the need for dialysis in the first 7 days post-KT. Episode of biopsy-proven acute rejection (BPAR) during 3 months post-KT was diagnosed based on histologic findings in indication kidney graft biopsy according to Banff 2015 criteria.

[2] = Clinical outcomes after kidney transplantation (hypotension, DGF, BPAR, post-transplant diabetes, tremor); type: in vivo, human
Protocol: as §1

[3] = day 1 post-transplantation, CYP3A5 expressers, diltiazem 30 mg every 12 h (n = 11), median (IQR)
[4] = day 1 post-transplantation, CYP3A5 expressers, placebo (n = 12), median (IQR)
[5] = day 1 post-transplantation, CYP3A5 non-expressers, diltiazem 30 mg every 12 h (n = 9), median (IQR)
[6] = day 1 post-transplantation, CYP3A5 non-expressers, placebo (n = 8), median (IQR)
[7] = day 3 post-transplantation, CYP3A5 expressers, diltiazem 30 mg every 12 h (n = 11), median (IQR)
[8] = day 3 post-transplantation, CYP3A5 expressers, placebo (n = 12), median (IQR)
[9] = day 3 post-transplantation, CYP3A5 non-expressers, diltiazem 30 mg every 12 h (n = 9), median (IQR)
[10] = day 3 post-transplantation, CYP3A5 non-expressers, placebo (n = 8), median (IQR)
[11] = day 7, all 40 KTRs, median (IQR)
[12] = day 7 post-transplantation, CYP3A5 expressers, diltiazem 30 mg every 12 h (n = 11), median (IQR)
[13] = day 7 post-transplantation, CYP3A5 expressers, placebo (n = 12), median (IQR)
[14] = day 7 post-transplantation, CYP3A5 non-expressers, diltiazem 30 mg every 12 h (n = 9), median (IQR)
[15] = day 7 post-transplantation, CYP3A5 non-expressers, placebo (n = 8), median (IQR)

Q: Which C0/D [1, 3] does the source give for `C=CC[C@@H]1/C=C(\C)C[C@H](C)C[C@H](OC)[C@H]2O[C@@](O)(C(=O)C(=O)N3CCCC[C@H]3C(=O)O[C@H](/C(C)=C/[C@@H]3CC[C@@H](O)[C@H](OC)C3)[C@H](C)[C@@H](O)CC1=O)[C@H](C)C[C@@H]2OC` [Tacrolimus] here?
A: 3.3 (2.6, 4.5) ng/mL per mg

Q: And the C0/Daily dose [1, 3]?
A: 1.6 (1.3, 2.3) ng/mL per mg/day

Q: What about the C0/D [1, 4] of the same compound?
A: 2.2 (1.3, 2.8) ng/mL per mg

Q: What about the C0/Daily dose [1, 4] of the same compound?
A: 1.1 (0.6, 1.4) ng/mL per mg/day

Q: And the C0/D [1, 5]?
A: 3.8 (2.7, 7.2)^c ng/mL per mg

Q: And the C0/Daily dose [1, 5]?
A: 1.9 (1.3, 3.6)^c ng/mL per mg/day

Q: What about the C0/D [1, 6] of the same compound?
A: 3.8 (2.0, 5.0) ng/mL per mg

Q: What about the C0/Daily dose [1, 6] of the same compound?
A: 1.9 (1.0, 2.5) ng/mL per mg/day

Q: And the C0/D [1, 7]?
A: 3.7 (2.4, 4.5)^c ng/mL per mg

Q: And the C0/Daily dose [1, 7]?
A: 1.8 (1.2, 2.2)^c ng/mL per mg/day

Q: And the C0/D [1, 8]?
A: 1.8 (1.1, 2.0) ng/mL per mg

Q: And the C0/Daily dose [1, 8]?
A: 0.9 (0.6, 1.0) ng/mL per mg/day

Q: And the C0/D [1, 9]?
A: 6.4 (4.1, 8.8)^c ng/mL per mg

Q: What about the C0/Daily dose [1, 9] of the same compound?
A: 3.2 (2.0, 4.4)^c ng/mL per mg/day

Q: And the C0/D [1, 10]?
A: 3.4 (2.7, 5.8)^c ng/mL per mg

Q: And the C0/Daily dose [1, 10]?
A: 1.7 (1.4, 2.9)^c ng/mL per mg/day

Q: And the AUC/D [1, 11]?
A: 44.9 (37.1, 65.3) ng*h/mL per mg

Q: And the C0/D [1, 11]?
A: 2.5 (1.8, 3.7) ng/mL per mg

Q: What about the “C0, range” value ([1]; day 7, all 40 KTRs, range) of the same compound?
A: 5.0 to 13.2 ng/mL

Q: And the “AUC/D (dose-adjusted area under the 12-h curve)” value ([1]; day 7 post-transplantation, CYP3A5 expressers, diltiazem 30 mg every 12 h (EXdtz, n = 11), median (IQR))?
A: 43.6 (37.0, 50.5) ng*h/mL per mg

Q: What about the “AUC/D (dose-adjusted area under the 12-h curve)” value ([1]; day 7 post-transplantation, CYP3A5 expressers, diltiazem 30 mg every 12 h (EXdtz, n = 11), median (IQR), listed as tacrolimus) of the same compound?
A: 43.6 ng*h/mL per mg

Q: What about the C0/D [1, 12] of the same compound?
A: 1.9 (1.8, 3.2) ng/mL per mg

Q: What about the C0/Daily dose [1, 12] of the same compound?
A: 1.0 (0.9, 1.6) ng/mL per mg/day

Q: What about the “AUC/D (dose-adjusted area under the 12-h curve)” value ([1]; day 7 post-transplantation, CYP3A5 expressers, placebo (EXplb, n = 12), median (IQR)) of the same compound?
A: 34.9 (31.6, 38.5) ng*h/mL per mg

Q: What about the “AUC/D (dose-adjusted area under the 12-h curve)” value ([1]; day 7 post-transplantation, CYP3A5 expressers, placebo (EXplb, n = 12), median (IQR), listed as tacrolimus) of the same compound?
A: 34.9 ng*h/mL per mg

Q: And the C0/D [1, 13]?
A: 2.0 (1.4, 2.5) ng/mL per mg

Q: And the C0/Daily dose [1, 13]?
A: 1.0 (0.7, 1.2) ng/mL per mg/day

Q: And the “AUC/D (dose-adjusted area under the 12-h curve)” value ([1]; day 7 post-transplantation, CYP3A5 non-expressers, diltiazem 30 mg every 12 h (NEdtz, n = 9), median (IQR))?
A: 71.1 (54.9, 100.7)^c ng*h/mL per mg

Q: And the “AUC/D (dose-adjusted area under the 12-h curve)” value ([1]; day 7 post-transplantation, CYP3A5 non-expressers, diltiazem 30 mg every 12 h (NEdtz, n = 9), median (IQR), listed as tacrolimus)?
A: 71.1 ng*h/mL per mg

Q: And the C0/D [1, 14]?
A: 4.2 (2.8, 6.0)^c ng/mL per mg

Q: What about the C0/Daily dose [1, 14] of the same compound?
A: 2.1 (1.4, 3.0)^c ng/mL per mg/day

Q: And the “AUC/D (dose-adjusted area under the 12-h curve)” value ([1]; day 7 post-transplantation, CYP3A5 non-expressers, placebo (NEplb, n = 8), median (IQR))?
A: 49.4 (43.0, 62.9)^c ng*h/mL per mg

Q: What about the “AUC/D (dose-adjusted area under the 12-h curve)” value ([1]; day 7 post-transplantation, CYP3A5 non-expressers, placebo (NEplb, n = 8), median (IQR), listed as tacrolimus) of the same compound?
A: 49.4 ng*h/mL per mg

Q: What about the C0/D [1, 15] of the same compound?
A: 2.8 (2.5, 3.4) ng/mL per mg

Q: And the C0/Daily dose [1, 15]?
A: 1.4 (1.2, 1.7) ng/mL per mg/day

Q: What about the C0 ([1]; 30 mg, day 1 post-transplantation, CYP3A5 expressers, diltiazem 30 mg every 12 h (n = 11), mean ± SD) of the same compound?
A: 10.9 ± 3.7 ng/mL

Q: And the C0 ([1]; 30 mg, day 1 post-transplantation, CYP3A5 non-expressers, diltiazem 30 mg every 12 h (n = 9), mean ± SD)?
A: 13.1 ± 7.4 ng/mL

Q: What about the C0 ([1]; 30 mg, day 3 post-transplantation, CYP3A5 expressers, diltiazem 30 mg every 12 h (n = 11), median (IQR)) of the same compound?
A: 9.3 ng/mL

Q: And the C0 ([1]; 30 mg, day 3 post-transplantation, CYP3A5 non-expressers, diltiazem 30 mg every 12 h (n = 9), median (IQR))?
A: 11.9 ng/mL

Q: And the C0 ([1]; 30 mg, day 7 post-transplantation, CYP3A5 expressers, diltiazem 30 mg every 12 h (n = 11), mean ± SD)?
A: 7.4 ± 2.1 ng/mL

Q: What about the AUC ([1]; 30 mg, day 7 post-transplantation, CYP3A5 expressers, diltiazem 30 mg every 12 h (n = 11), mean ± SD, read-out: AUC (area under the concentration over 12-h curve)) of the same compound?
A: 138 ± 29.6 ng·h/mL

Q: What about the C0 ([1]; 30 mg, day 7 post-transplantation, CYP3A5 non-expressers, diltiazem 30 mg every 12 h (n = 9), mean ± SD) of the same compound?
A: 8.4 ± 1.8 ng/mL

Q: What about the AUC ([1]; 30 mg, day 7 post-transplantation, CYP3A5 non-expressers, diltiazem 30 mg every 12 h (n = 9), mean ± SD, read-out: AUC (area under the concentration over 12-h curve)) of the same compound?
A: 148 ± 25.5 ng·h/mL

Q: What about the C0 ([1]; day 1 post-transplantation, CYP3A5 expressers, placebo (n = 12), mean ± SD) of the same compound?
A: 7 ± 3.2 ng/mL

Q: And the C0 ([1]; day 1 post-transplantation, CYP3A5 non-expressers, placebo (n = 8), mean ± SD)?
A: 12.6 ± 7.2 ng/mL

Q: What about the C0 [1, 8] of the same compound?
A: 6.2 ng/mL

Q: And the C0 [1, 10]?
A: 9.4 ng/mL

Q: And the C0 ([1]; day 7, all 40 KTRs, mean ± SD)?
A: 8.4 ± 2.1 ng/mL

Q: What about the AUC ([1]; day 7, all 40 KTRs, mean ± SD, read-out: AUC) of the same compound?
A: 154 ± 33.2 ng·h/mL

Q: What about the AUC ([1]; day 7, all 40 KTRs, range, read-out: AUC, range) of the same compound?
A: 96.9 to 233 ng·h/mL

Q: What about the C0 ([1]; day 7 post-transplantation, CYP3A5 expressers, placebo (n = 12), mean ± SD) of the same compound?
A: 9.2 ± 1.6 ng/mL

Q: And the AUC ([1]; day 7 post-transplantation, CYP3A5 expressers, placebo (n = 12), mean ± SD, read-out: AUC (area under the concentration over 12-h curve))?
A: 169 ± 32.2 ng·h/mL

Q: And the C0 ([1]; day 7 post-transplantation, CYP3A5 non-expressers, placebo (n = 8), mean ± SD)?
A: 8.6 ± 2.5 ng/mL

Q: What about the AUC ([1]; day 7 post-transplantation, CYP3A5 non-expressers, placebo (n = 8), mean ± SD, read-out: AUC (area under the concentration over 12-h curve)) of the same compound?
A: 159 ± 40.7 ng·h/mL

Q: What about the Tremor ([2]; during 3 months after transplantation, 40 KTRs) of the same compound?
A: No study patients reported tremor

Q: What about the “Biopsy-proven acute rejection (BPAR)” value ([2]; during 3 months after transplantation, 40 KTRs on tacrolimus-based regimen, one in EXdtz, one in NEplb) of the same compound?
A: 5%

Q: What about the Post-transplant diabetes mellitus ([2]; during 3 months after transplantation, 40 KTRs, one in EXplb, one in EXdtz) of the same compound?
A: 5%

Q: And the “DGF, suspected rejection, or BPAR” value ([2]; first week post-KT, 40 KTRs on tacrolimus-based regimen)?
A: None
